In patent US20060069132A1, “Azolecarboxamide herbicides” (priority 2004, published 2006):

Key:
morningglory = experiment: Test B pre-/postemergence herbicide test; format: in vivo, Ipomoea coccinea; settings: for Morningglory plant response rating (0 to 100 scale): 0 = no effect, 100 = complete control; for Morningglory plant response rating (0 to 100 scale) / Plant response rating, Morningglory: preemergence; for Plant response rating, Morningglory: visual rating 0-100, 0 no effect, 100 complete control; for Morningglory plant response rating: postemergence, visual rating, scale 0 (no effect) to 100 (complete control)
Method in brief: (§1)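 Response was scored visually 13 to 15 days after treatment against untreated greenhouse controls, 0 meaning no effect and 100 complete control. Formulations (solvent mixture plus surfactant) went onto soil after planting, onto foliage of 1- to 4-leaf plants, and onto 2-leaf plants in a flooded paddy set including rice and barnyardgrass.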

corn = experiment: Test B pre-/postemergence herbicide test; format: in vivo, Zea mays; settings: for Corn plant response rating (0 to 100 scale): 0 = no effect, 100 = complete control; for Corn plant response rating (0 to 100 scale) / Plant response rating, Corn: preemergence; for Plant response rating, Corn: visual rating 0-100, 0 no effect, 100 complete control; for Corn plant response rating: postemergence, visual rating, scale 0 (no effect) to 100 (complete control)
Method in brief: as §1

velvetleaf = experiment: Test B pre-/postemergence herbicide test; format: in vivo, Abutilon theophrasti; settings: for Velvetleaf plant response rating (0 to 100 scale): 0 = no effect, 100 = complete control; for Velvetleaf plant response rating (0 to 100 scale) / Plant response rating, Velvetleaf: preemergence; for Plant response rating, Velvetleaf: visual rating 0-100, 0 no effect, 100 complete control; for Velvetleaf plant response rating: postemergence, visual rating, scale 0 (no effect) to 100 (complete control)
Method in brief: as §1

giant foxtail = experiment: Test B pre-/postemergence herbicide test; format: in vivo, Setaria faberi; settings: for Foxtail, Giant plant response rating (0 to 100 scale): 0 = no effect, 100 = complete control; for Foxtail, Giant plant response rating (0 to 100 scale) / Plant response rating, Foxtail, Giant: preemergence; for Plant response rating, Foxtail, Giant: visual rating 0-100, 0 no effect, 100 complete control; for Foxtail, Giant plant response rating: postemergence, visual rating, scale 0 (no effect) to 100 (complete control)
Method in brief: as §1

wild oat = experiment: Test B postemergence herbicide test; format: in vivo, Avena fatua; settings: postemergence, visual rating, scale 0 (no effect) to 100 (complete control)
Method in brief: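 Formulated test chemicals went onto postemergence plants measuring 2 to 18 cm, at one to four leaves. For the paddy assay, species had reached two leaves. Scoring took place 13–15 days later by eye, relative to untreated plants, using 0 for no effect up to 100 for full control.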

[1] = tested on: small flower umbrella sedge; experiment: Test B flooded paddy test; format: in vivo, Cyperus difformis; settings: 1000 g ai/ha, visual rating, scale 0 to 100 (0 no effect, 100 complete control), 13 to 15 days
Method in brief: (§2)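 Visual control ratings, 0–100 versus untreated controls, taken after 13 to 15 days in the greenhouse. Blackgrass received a postemergence spray at the 1- to 4-leaf stage (2–18 cm); ducksalad, umbrella sedge and barnyardgrass were flooded-paddy treated at 2 leaves.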

large crabgrass = experiment: Test B pre-/postemergence herbicide test; format: in vivo, Digitaria sanguinalis; settings: for Crabgrass, Large plant response rating (0 to 100 scale): 0 = no effect, 100 = complete control; for Crabgrass, Large plant response rating (0 to 100 scale) / Plant response rating, Crabgrass, Large: preemergence; for Plant response rating, Crabgrass, Large: visual rating 0-100, 0 no effect, 100 complete control; for Crabgrass, Large plant response rating: postemergence, visual rating, scale 0 (no effect) to 100 (complete control)
Method in brief: as §1

Surinam grass = experiment: Test B pre-/postemergence herbicide test; format: in vivo, Urochloa decumbens; settings: for Surinam Grass plant response rating (0 to 100 scale): 0 = no effect, 100 = complete control; for Surinam Grass plant response rating (0 to 100 scale) / Plant response rating, Surinam Grass: preemergence; for Plant response rating, Surinam Grass: visual rating 0-100, 0 no effect, 100 complete control; for Surinam Grass plant response rating: postemergence, visual rating, scale 0 (no effect) to 100 (complete control)
Method in brief: as §1

ducksalad = experiment: Test B flooded paddy test; format: in vivo, Heteranthera limosa; settings: 1000 g ai/ha, visual rating, scale 0 to 100 (0 no effect, 100 complete control), 13 to 15 days
Method in brief: as §2

rice = experiment: Test B flooded paddy test; format: in vivo, Oryza sativa; settings: 1000 g ai/ha, visual rating, scale 0 to 100 (0 no effect, 100 complete control), 13 to 15 days
Method in brief: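 Postemergence plants were sprayed with formulated test chemicals at 2 to 18 cm height (1- to 4-leaf stage); paddy species were grown to the 2-leaf stage. After 13 to 15 days in a greenhouse, injury was rated visually against untreated controls on a 0–100 scale (0 = no effect, 100 = complete control).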

blackgrass = experiment: Test B postemergence herbicide test; format: in vivo, Alopecurus myosuroides; settings: postemergence, visual rating, scale 0 (no effect) to 100 (complete control)
Method in brief: as §2

cocklebur = experiment: Test B pre-/postemergence herbicide test; format: in vivo, Xanthium strumarium; settings: for Cocklebur plant response rating (0 to 100 scale): 0 = no effect, 100 = complete control; for Cocklebur plant response rating (0 to 100 scale) / Plant response rating, Cocklebur: preemergence; for Plant response rating, Cocklebur: visual rating 0-100, 0 no effect, 100 complete control; for Cocklebur plant response rating: postemergence, visual rating, scale 0 (no effect) to 100 (complete control)
Method in brief: as §1

lambsquarters = experiment: Test B pre-/postemergence herbicide test; format: in vivo, Chenopodium album; settings: for Lambsquarters plant response rating (0 to 100 scale): 0 = no effect, 100 = complete control; for Lambsquarters plant response rating (0 to 100 scale) / Plant response rating, Lambsquarters: preemergence; for Plant response rating, Lambsquarters: visual rating 0-100, 0 no effect, 100 complete control; for Lambsquarters plant response rating: postemergence, visual rating, scale 0 (no effect) to 100 (complete control)
Method in brief: as §1

barnyardgrass = experiment: Test B pre-/postemergence herbicide test; format: in vivo, Echinochloa crus-galli; settings: for Barnyardgrass plant response rating (0 to 100 scale): 0 = no effect, 100 = complete control; for Barnyardgrass plant response rating (0 to 100 scale) / Plant response rating, Barnyardgrass: preemergence; for Plant response rating, Barnyardgrass: visual rating 0-100, 0 no effect, 100 complete control; for Barnyardgrass plant response rating: postemergence, visual rating, scale 0 (no effect) to 100 (complete control)
Method in brief: as §1

pigweed = experiment: Test B pre-/postemergence herbicide test; format: in vivo, Amaranthus retroflexus; settings: for Pigweed plant response rating (0 to 100 scale): 0 = no effect, 100 = complete control; for Pigweed plant response rating (0 to 100 scale) / Plant response rating, Pigweed: preemergence; for Plant response rating, Pigweed: visual rating 0-100, 0 no effect, 100 complete control; for Pigweed plant response rating: postemergence, visual rating, scale 0 (no effect) to 100 (complete control)
Method in brief: as §1

CCc1nc(C(C)(C)C)sc1C(=O)Nc1cccc(C(=O)N(CC)CC)c1 [Compound 205]
Morningglory plant response rating (0 to 100 scale) (morningglory; 125 g ai/ha): 0
Plant response rating, Morningglory (morningglory; 500 g ai/ha): 30
Morningglory plant response rating (morningglory; 125 g ai/ha): 30
Morningglory plant response rating (morningglory; 500 g ai/ha): 50
Corn plant response rating (0 to 100 scale) (corn; 125 g ai/ha): 10
Plant response rating, Corn (corn; 500 g ai/ha): 40
Corn plant response rating (corn; 125 g ai/ha): 20
Corn plant response rating (corn; 500 g ai/ha): 20
Velvetleaf plant response rating (0 to 100 scale) (velvetleaf; 125 g ai/ha): 30
Plant response rating, Velvetleaf (velvetleaf; 500 g ai/ha): 80
Velvetleaf plant response rating (velvetleaf; 125 g ai/ha): 20
Velvetleaf plant response rating (velvetleaf; 500 g ai/ha): 40
Foxtail, Giant plant response rating (0 to 100 scale) (giant foxtail; 125 g ai/ha): 50
Plant response rating, Foxtail, Giant (giant foxtail; 500 g ai/ha): 100
Foxtail, Giant plant response rating (giant foxtail; 125 g ai/ha): 20
Foxtail, Giant plant response rating (giant foxtail; 500 g ai/ha): 30
Oat, Wild plant response rating (wild oat; 125 g ai/ha): 20
Oat, Wild plant response rating (wild oat; 500 g ai/ha): 30
Sedge, Umbrella plant response rating [1]: 60
Crabgrass, Large plant response rating (0 to 100 scale) (large crabgrass; 125 g ai/ha): 60
Plant response rating, Crabgrass, Large (large crabgrass; 500 g ai/ha): 90
Crabgrass, Large plant response rating (large crabgrass; 125 g ai/ha): 10
Crabgrass, Large plant response rating (large crabgrass; 500 g ai/ha): 20
Surinam Grass plant response rating (0 to 100 scale) (Surinam grass; 125 g ai/ha): 20
Plant response rating, Surinam Grass (Surinam grass; 500 g ai/ha): 80
Surinam Grass plant response rating (Surinam grass; 125 g ai/ha): 20
Surinam Grass plant response rating (Surinam grass; 500 g ai/ha): 20
Ducksalad plant response rating (ducksalad): 50
Rice plant response rating (rice): 60
Blackgrass plant response rating (blackgrass; 125 g ai/ha): 0
Blackgrass plant response rating (blackgrass; 500 g ai/ha): 20
Cocklebur plant response rating (0 to 100 scale) (cocklebur; 125 g ai/ha): 10
Plant response rating, Cocklebur (cocklebur; 500 g ai/ha): 20
Cocklebur plant response rating (cocklebur; 125 g ai/ha): 40
Cocklebur plant response rating (cocklebur; 500 g ai/ha): 80
Lambsquarters plant response rating (0 to 100 scale) (lambsquarters; 125 g ai/ha): 80
Plant response rating, Lambsquarters (lambsquarters; 500 g ai/ha): 100
Lambsquarters plant response rating (lambsquarters; 125 g ai/ha): 60
Lambsquarters plant response rating (lambsquarters; 500 g ai/ha): 70
Barnyardgrass plant response rating (0 to 100 scale) (barnyardgrass; 125 g ai/ha): 50
Plant response rating, Barnyardgrass (barnyardgrass; 500 g ai/ha): 90
Barnyardgrass plant response rating (barnyardgrass; 125 g ai/ha): 10
Barnyardgrass plant response rating (barnyardgrass; 500 g ai/ha): 20
Pigweed plant response rating (0 to 100 scale) (pigweed; 125 g ai/ha): 100
Plant response rating, Pigweed (pigweed; 500 g ai/ha): 100
Pigweed plant response rating (pigweed; 125 g ai/ha): 40
Pigweed plant response rating (pigweed; 500 g ai/ha): 50

CCc1nc(C(C)(C)C)sc1C(=O)Nc1cccc(C(=O)NCCF)c1 [Compound 209]
Morningglory plant response rating (0 to 100 scale) (morningglory; 125 g ai/ha): 10
Plant response rating, Morningglory (morningglory; 500 g ai/ha): 20
Morningglory plant response rating (morningglory; 125 g ai/ha): 20
Morningglory plant response rating (morningglory; 500 g ai/ha): 20
Corn plant response rating (0 to 100 scale) (corn; 125 g ai/ha): 0
Plant response rating, Corn (corn; 500 g ai/ha): 50
Corn plant response rating (corn; 125 g ai/ha): 20
Corn plant response rating (corn; 500 g ai/ha): 30
Velvetleaf plant response rating (0 to 100 scale) (velvetleaf; 125 g ai/ha): 10
Plant response rating, Velvetleaf (velvetleaf; 500 g ai/ha): 50
Velvetleaf plant response rating (velvetleaf; 125 g ai/ha): 20
Velvetleaf plant response rating (velvetleaf; 500 g ai/ha): 20
Foxtail, Giant plant response rating (0 to 100 scale) (giant foxtail; 125 g ai/ha): 30
Plant response rating, Foxtail, Giant (giant foxtail; 500 g ai/ha): 60
Foxtail, Giant plant response rating (giant foxtail; 125 g ai/ha): 20
Foxtail, Giant plant response rating (giant foxtail; 500 g ai/ha): 30
Oat, Wild plant response rating (wild oat; 125 g ai/ha): 20
Oat, Wild plant response rating (wild oat; 500 g ai/ha): 20
Sedge, Umbrella plant response rating [1]: 90
Crabgrass, Large plant response rating (0 to 100 scale) (large crabgrass; 125 g ai/ha): 40
Plant response rating, Crabgrass, Large (large crabgrass; 500 g ai/ha): 60
Crabgrass, Large plant response rating (large crabgrass; 125 g ai/ha): 20
Crabgrass, Large plant response rating (large crabgrass; 500 g ai/ha): 20
Surinam Grass plant response rating (0 to 100 scale) (Surinam grass; 125 g ai/ha): 20
Plant response rating, Surinam Grass (Surinam grass; 500 g ai/ha): 50
Surinam Grass plant response rating (Surinam grass; 125 g ai/ha): 20
Surinam Grass plant response rating (Surinam grass; 500 g ai/ha): 20
Ducksalad plant response rating (ducksalad): 80
Rice plant response rating (rice): 50
Blackgrass plant response rating (blackgrass; 125 g ai/ha): 0
Blackgrass plant response rating (blackgrass; 500 g ai/ha): 20
Cocklebur plant response rating (0 to 100 scale) (cocklebur; 125 g ai/ha): 10
Plant response rating, Cocklebur (cocklebur; 500 g ai/ha): 30
Cocklebur plant response rating (cocklebur; 125 g ai/ha): 30
Cocklebur plant response rating (cocklebur; 500 g ai/ha): 40
Lambsquarters plant response rating (0 to 100 scale) (lambsquarters; 125 g ai/ha): 60
Plant response rating, Lambsquarters (lambsquarters; 500 g ai/ha): 100
Lambsquarters plant response rating (lambsquarters; 125 g ai/ha): 40
Lambsquarters plant response rating (lambsquarters; 500 g ai/ha): 40
Barnyardgrass plant response rating (0 to 100 scale) (barnyardgrass; 125 g ai/ha): 50
Plant response rating, Barnyardgrass (barnyardgrass; 500 g ai/ha): 90
Barnyardgrass plant response rating (barnyardgrass; 125 g ai/ha): 10
Barnyardgrass plant response rating (barnyardgrass; 500 g ai/ha): 20
Pigweed plant response rating (0 to 100 scale) (pigweed; 125 g ai/ha): 70
Plant response rating, Pigweed (pigweed; 500 g ai/ha): 100
Pigweed plant response rating (pigweed; 125 g ai/ha): 30
Pigweed plant response rating (pigweed; 500 g ai/ha): 40
